Data: article PMC11859236, “A Sequential Ultrafiltration Method to Enhance the Accuracy and Throughput in Plasma Protein Binding Tests” (Pharmaceutics, 2025)
Where a name gives a salt, the structure may show the parent alone. Read-outs that look alike come from different tables or passages of the source.

Columns and labels:
[1] = cited from earlier work
plasma proteins [2] = assay: Sequential UF, plasma protein binding; conditions: for Plasma protein binding (%): Sequential UF, rat plasma, mean (±SD)
Description: (§2) Rat plasma was collected from male Sprague Dawley rats purchased from Orient Bio Inc. (Seongnam, Republic of Korea). The plasma was separated from whole blood samples using centrifugation and was utilized immediately for the PPB test.
(§3) All compounds, with the exception of otaplimastat and ciclopirox, were added to 1 mL of blank plasma to achieve a drug concentration of 10 μM. Otaplimastat and ciclopirox were examined at concentrations of 5 μM and 1 μg/mL, respectively. The compound-added plasma samples were incubated in a water bath at 37 °C and agitated at 50 rpm for two hours prior to the PPB test.
(§4) A volume of 0.5 mL of the plasma sample was initially loaded onto the filter within the FT tube. The tube was then subjected to centrifugation at 14,000× g for 2 min at a temperature of 25 °C, serving as the pre-ultrafiltration (pre-UF) step.
(§5) The bound and unbound plasma fractions were subjected to linear regression analysis, with the regression line established by constraining the y-intercept to zero [14].

plasma proteins [3] = assay: Mass balance UF, plasma protein binding; conditions: for Plasma protein binding (%): Mass balance UF, rat plasma, mean (±SD)
Description: Washing procedures were performed in accordance with established methods for conventional ultrafiltration. Further procedures were conducted as per the protocols outlined by Wang and Williams. […] Following centrifugation, the filter was carefully detached from the FT tube, and the filtrate was removed. The filter was then inverted and transferred to a new retentate collection tube (RT tube), where it underwent a second centrifugation at 1000× g for 2 min at 25 °C. The retentate was subsequently extracted from the RT tube (Figure 2A).
In this equation, CR and VR represent the concentration and volume of the retentate obtained from the final RT tube, while CF and VF denote the concentration and volume of the filtrate collected from the FT tube.

Log p (lipophilicity) = assay type: physicochemical; conditions: in-house unpublished data
Source text: Table 2 Log p value of the test compounds. | column: Log p

plasma proteins [4] = conditions: male, Sprague Dawley, rat, 2 h, 10 μM
Description: as §2, §3, §4, §5

plasma proteins [5] = tested on: plasma proteins; design: method as in PMID 11709325; conditions: equilibrium dialysis; cited from earlier work
plasma proteins [6] = assay: Conventional UF without NSB correction, plasma protein binding; assay type: in vitro ADME, rat; conditions: male, Sprague Dawley
Description: (§1) The device used in the experiment was Amicon® Ultra, which is commonly used in UF experiments. UF was conducted following the manufacturer's user guide. Briefly, the centrifugal filter units were washed once with 0.1N NaOH and then twice with double-distilled water by centrifugation at 14,000× g for 15 min. […] The exact process was performed using phosphate-buffered saline (PBS) instead of plasma to obtain a filtrate solution for correction with PBS [13].

plasma proteins [7] = assay: Conventional UF with NSB correction using PBS, plasma protein binding; assay type: in vitro ADME; conditions: male, Sprague Dawley, rat plasma, conventional UF with NSB correction by PBS, mean ± SD, read-out: percentage of PPB (converted)
Description: as §1, with “[13]. […] In this equation, CSB indicates the concentration of the buffer sample, while CFB signifies the concentration of the filtrate sample derived from ultrafiltration using the buffer.” for “[13].”

[8] = male, Sprague Dawley, rat, plasma

SMILES: Cc1cc(C2CCCCC2)n(O)c(=O)c1 [Ciclopirox]
- Log p [1]: 2.73
- fraction unbound at 2 h, 1 μg/mL (plasma proteins [2]; [8]): 0.0129
- fraction unbound at 2 h, 1 μg/mL (plasma proteins [3]; [8]): 0.0285

SMILES: CCc1c2c(nc3ccc(OC(=O)N4CCC(N5CCCCC5)CC4)cc13)-c1cc3c(c(=O)n1C2)COC(=O)[C@]3(O)CC [Irinotecan, irinotecan hydrochloride]
- Log p [1]: 4.18

SMILES: CC(=O)N(CCCCNCCCn1c(=O)[nH]c2ccccc2c1=O)CCCn1c(=O)[nH]c2ccccc2c1=O [Otaplimastat]
- Plasma protein binding (%) (plasma proteins [2]; 5 μM): 57.61 (±3.39) %
- Log p (Log p (lipophilicity)): 2.67
- Plasma protein binding (%) (plasma proteins [3]; 5 μM): 50.63 (±11.71) %

SMILES: O=c1c(O)c(-c2ccc(O)c(O)c2)oc2cc(O)cc(O)c12 [Quercetin, quercetin]
- absolute difference in PPB between sequential UF and mass balance UF (plasma proteins [4]): 0.31%
- Log p [1]: 1.82
- fraction unbound at 2 h, 10 μM (plasma proteins [2]; [8]): 0.0008
- difference between CR and CF (retentate and filtrate concentration) (plasma proteins [3]; male, Sprague Dawley, rat, 2 h, 10 μM): 1000 fold
- fraction unbound at 2 h, 10 μM (plasma proteins [3]; [8]): 0.0039

SMILES: COC(=O)c1ccccc1-c1c2ccc(=N)cc-2oc2cc(N)ccc12 [Rhodamine 123, rhodamine 123]
- Log p [1]: 1.06
- fraction unbound at 2 h, 10 μM (plasma proteins [2]; [8]): 0.25
- protein binding, literature value (plasma proteins [5]): 70%
- fraction unbound at 2 h, 10 μM (plasma proteins [3]; [8]): 0.3
- fraction unbound at 2 h, 10 μM (plasma proteins [6]; rat plasma, conventional UF without NSB correction, mean ± SD, read-out: percentage of PPB (converted)): 0.103
- excess of PPB by conventional UF without NSB correction over PPB with NSB correction using PBS (plasma proteins [6]; rat, 2 h, 10 μM): 22.6%
- fraction unbound at 2 h, 10 μM (plasma proteins [7]): 0.33

SMILES: CCc1c2c(nc3ccc(O)cc13)-c1cc3c(c(=O)n1C2)COC(=O)[C@]3(O)CC [SN-38]
- Log p [1]: 2.31
- Plasma protein binding (%) (plasma proteins [2]; 10 μM): 95.47 (±0.88) %
- Plasma protein binding (%) (plasma proteins [3]; 10 μM): 95.69 (±1.58) %
